Test results from ChEMBL document CHEMBL3351570, “Design and synthesis of 2-phenylnaphthalenoids as inhibitors of DNA topoisomeraseIIα and antitumor agents” (Eur J Med Chem, 2014).
The source made the active and inactive calls. No cut-off for these calls is given here.

Experiments:
[1] = tested on: HeLa; assay: Cytotoxicity against human HeLa cells after 72 hrs by sulforhodamine B assay; type: functional, cell-based
[2] = tested on: MDA-MB-231; assay: Cytotoxicity against human MDA-MB-231 cells after 72 hrs by sulforhodamine B assay; type: functional, cell-based; settings: MDA-MB-231, 72 h
[3] = tested on: A549; assay: Cytotoxicity against human A549 cells after 72 hrs by sulforhodamine B assay; type: functional, cell-based; settings: A549, 72 h
[4] = tested on: Nucleic Acid; assay: Induction of DNA intercalation in Escherichia coli pBR322 DNA at 100 uM by DNA gel electrophoresis; type: nucleic-acid assay
[5] = biological target: DNA topoisomerase 2-alpha (Homo sapiens) (UniProt P11388); assay: Inhibition of human recombinant topoisomerase 2alpha assessed as reduction in kDNA decatenation at 100 uM incubated for 30 mins by DNA gel electrophoresis
DNA topoisomerase 2-alpha (Homo sapiens), sequence (P11388 whole entry): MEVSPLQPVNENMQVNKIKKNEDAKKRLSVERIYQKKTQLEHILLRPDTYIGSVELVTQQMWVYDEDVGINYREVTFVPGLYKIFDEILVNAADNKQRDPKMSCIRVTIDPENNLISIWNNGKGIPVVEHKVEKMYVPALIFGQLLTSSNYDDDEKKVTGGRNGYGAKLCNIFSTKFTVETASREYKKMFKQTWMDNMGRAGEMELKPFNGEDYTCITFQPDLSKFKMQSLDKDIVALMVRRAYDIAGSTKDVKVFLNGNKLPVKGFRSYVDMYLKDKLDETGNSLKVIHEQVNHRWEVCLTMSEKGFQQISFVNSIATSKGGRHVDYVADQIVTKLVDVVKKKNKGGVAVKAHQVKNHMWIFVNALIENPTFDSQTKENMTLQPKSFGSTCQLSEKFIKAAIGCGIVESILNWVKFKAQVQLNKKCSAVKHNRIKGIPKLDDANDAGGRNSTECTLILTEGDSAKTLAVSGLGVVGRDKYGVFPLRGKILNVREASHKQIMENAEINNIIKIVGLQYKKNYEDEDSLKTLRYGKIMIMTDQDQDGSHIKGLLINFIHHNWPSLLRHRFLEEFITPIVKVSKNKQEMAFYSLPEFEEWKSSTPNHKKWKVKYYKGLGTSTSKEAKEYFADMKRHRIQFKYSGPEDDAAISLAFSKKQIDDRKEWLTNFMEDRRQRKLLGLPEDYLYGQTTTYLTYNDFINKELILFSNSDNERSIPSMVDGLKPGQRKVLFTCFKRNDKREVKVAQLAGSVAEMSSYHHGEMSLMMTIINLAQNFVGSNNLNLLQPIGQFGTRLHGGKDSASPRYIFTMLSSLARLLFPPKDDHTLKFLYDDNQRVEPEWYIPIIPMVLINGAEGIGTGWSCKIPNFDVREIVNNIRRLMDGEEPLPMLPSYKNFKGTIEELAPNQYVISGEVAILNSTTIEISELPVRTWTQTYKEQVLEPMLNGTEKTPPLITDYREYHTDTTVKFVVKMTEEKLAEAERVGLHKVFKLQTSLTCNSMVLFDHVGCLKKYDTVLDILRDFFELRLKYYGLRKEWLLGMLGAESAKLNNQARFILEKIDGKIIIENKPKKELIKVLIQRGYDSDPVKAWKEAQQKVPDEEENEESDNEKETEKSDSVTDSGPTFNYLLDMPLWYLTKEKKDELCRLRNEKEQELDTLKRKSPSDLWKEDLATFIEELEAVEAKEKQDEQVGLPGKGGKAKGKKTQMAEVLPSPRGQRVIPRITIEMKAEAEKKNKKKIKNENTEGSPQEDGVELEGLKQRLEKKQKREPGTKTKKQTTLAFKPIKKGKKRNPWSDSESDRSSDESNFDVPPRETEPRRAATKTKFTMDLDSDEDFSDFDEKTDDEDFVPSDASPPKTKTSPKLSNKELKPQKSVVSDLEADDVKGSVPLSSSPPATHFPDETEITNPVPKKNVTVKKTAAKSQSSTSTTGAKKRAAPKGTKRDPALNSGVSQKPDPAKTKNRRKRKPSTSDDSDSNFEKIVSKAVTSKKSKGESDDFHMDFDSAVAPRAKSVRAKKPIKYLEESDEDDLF

[6] = biological target: DNA topoisomerase 2-alpha (Homo sapiens) (UniProt P11388); assay: Inhibition of human recombinant topoisomerase 2alpha assessed as reduction in pBR322 DNA relaxation at 100 uM incubated for 30 mins by DNA gel electrophoresis
[7] = biological target: T1, DNA topoisomerase (Bos taurus) (UniProt A0JN73); assay: Inhibition of calf thymus DNA topoisomerase 1 assessed as reduction in pBR322 DNA relaxation at 100 uM incubated for 30 mins by DNA gel electrophoresis
T1 sequence (whole entry): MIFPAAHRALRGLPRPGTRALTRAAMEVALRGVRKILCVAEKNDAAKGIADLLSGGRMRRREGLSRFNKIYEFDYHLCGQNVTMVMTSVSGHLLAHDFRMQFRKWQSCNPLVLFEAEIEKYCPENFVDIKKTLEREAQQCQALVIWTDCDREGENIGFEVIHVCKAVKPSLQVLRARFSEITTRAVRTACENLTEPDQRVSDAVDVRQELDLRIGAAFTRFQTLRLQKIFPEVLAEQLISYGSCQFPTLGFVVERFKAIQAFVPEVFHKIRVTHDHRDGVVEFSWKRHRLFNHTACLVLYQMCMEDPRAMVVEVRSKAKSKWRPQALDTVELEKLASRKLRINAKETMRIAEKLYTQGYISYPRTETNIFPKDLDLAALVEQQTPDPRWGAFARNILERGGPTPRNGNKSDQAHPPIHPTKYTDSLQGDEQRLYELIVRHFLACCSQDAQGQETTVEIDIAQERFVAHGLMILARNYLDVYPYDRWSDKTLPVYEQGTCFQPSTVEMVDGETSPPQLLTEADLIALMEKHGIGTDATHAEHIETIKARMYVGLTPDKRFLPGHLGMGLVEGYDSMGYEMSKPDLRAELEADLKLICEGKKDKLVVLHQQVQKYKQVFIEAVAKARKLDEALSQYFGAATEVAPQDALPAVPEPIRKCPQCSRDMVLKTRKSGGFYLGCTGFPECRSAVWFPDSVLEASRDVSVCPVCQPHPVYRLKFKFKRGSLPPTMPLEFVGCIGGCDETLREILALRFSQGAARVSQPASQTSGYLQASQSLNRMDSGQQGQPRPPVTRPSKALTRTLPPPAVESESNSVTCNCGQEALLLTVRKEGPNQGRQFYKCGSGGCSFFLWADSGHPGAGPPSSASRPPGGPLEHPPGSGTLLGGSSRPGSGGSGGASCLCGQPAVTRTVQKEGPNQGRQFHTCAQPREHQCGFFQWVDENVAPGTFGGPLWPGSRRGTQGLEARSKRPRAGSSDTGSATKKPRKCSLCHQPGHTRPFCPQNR

[8] = tested on: MDA-MB-231; assay: Increase in histone H3 Ser10 phosphorylation in human MDA-MB-231 cells at 10 uM after 24 hrs by Western blot method; type: functional, cell-based
[9] = biological target: DNA topoisomerase 2-alpha (Homo sapiens) (UniProt P11388); settings: 100 uM
Description: Inhibition of human recombinant topoisomerase 2alpha assessed as increase in linear DNA using circular supercoiled plasmid DNA substrate at 100 uM incubated for 30 mins by ethidium bromide staining based DNA gel electrophoresis

[10] = tested on: MDA-MB-231; assay: Antitumor activity against human MDA-MB-231 cells xenografted in BALB/c-nu mouse assessed as reduction in tumor weight at 20 mg/kg, iv dosed every other day for 15 days; type: functional; settings: MDA-MB-231, 360 h
[11] = tested on: Mus musculus; assay: Toxicity in nude BALB/c mouse xenografted with human MDA-MB-231 cells assessed as reduction in body weight at 20 mg/kg, iv dosed every other day for 15 days (reference value: 24.2 g); type: organism-based; set-up: dose 20 mg/kg, route intravenous; settings: in vivo, 360 h
[12] = tested on: MDA-MB-231; assay: Induction of DNA damage in human MDA-MB-231 cells assessed as increase in ATM S1981 phosphorylation at 10 uM after 24 hrs by Western blot method; type: functional, cell-based

Compound	IC50 [1]	IC50 [2]	IC50 [3]	also measured
COc1ccc(-c2ccc3cc(O)ccc3c2)cc1OC	4.8 µM	16.8 µM	20 µM	–
COC(=O)c1cc(-c2ccc3cc(OC)ccc3c2)ccc1O	> 20 µM	82.2 µM	> 20 µM	–
COc1cccc2c1C(=O)c1c(O)c3c(c(O)c1C2=O)C[C@@](O)(C(=O)CO)C[C@@H]3O[C@H]1C[C@H](N)[C@H](O)[C@H](C)O1	–	–	–	Activity [4]: Active
OCc1ccc(-c2ccc3cc(O)ccc3c2)cc1	2.2 µM	29.5 µM	> 20 µM	–
COc1ccc2cc(-c3cccc(CO)c3)ccc2c1	20 µM	19.9 µM	> 20 µM	–
Cc1ccc(C(=O)O)c(-c2ccc3cc(O)ccc3c2)c1	> 20 µM	94.3 µM	> 20 µM	inhibition [5]: Active
COC(=O)Cc1cc(-c2ccc3cc(OC)ccc3c2)ccc1O	> 20 µM	> 800 µM	> 20 µM	–
Oc1ccc2cc(-c3ccc(O)c(O)c3)ccc2c1	4.6 µM	4.3 µM	11.5 µM	inhibition [6]: Active; inhibition [5]: Active
Cc1cc(-c2ccc3cc(O)ccc3c2)ccc1N	2.9 µM	2.1 µM	3.5 µM	inhibition [6]: Active; inhibition [5]: Active
Oc1ccc(-c2ccc3cc(O)ccc3c2)cc1	3.1 µM	10.5 µM	11.4 µM	–
COc1ccc2cc(-c3ccc(O)c(C(=O)O)c3)ccc2c1	> 20 µM	93.3 µM	> 20 µM	–
O=Cc1ccc(O)c(-c2ccc3cc(O)ccc3c2)c1	5 µM	3.2 µM	10.5 µM	inhibition [6]: Active; inhibition [5]: Active
COc1ccc2cc(-c3ccc([N+](=O)[O-])c(C(F)(F)F)c3)ccc2c1	> 20 µM	165 µM	> 20 µM	–
COc1ccc2cc(-c3ccc(O)cc3)ccc2c1	> 20 µM	> 800 µM	> 20 µM	–
COC(=O)c1ccc(-c2ccc3cc(OC)ccc3c2)cc1O	> 20 µM	77.3 µM	> 20 µM	–
O=[N+]([O-])c1ccc(-c2ccc3cc(O)ccc3c2)cc1C(F)(F)F	1.9 µM	4.5 µM	3.5 µM	inhibition [6]: Active; inhibition [5]: Active
COc1ccc2cc(-c3ccc(CO)cc3)ccc2c1	9.1 µM	152 µM	7.9 µM	–
COC(=O)Cc1ccc(-c2ccc3cc(OC)ccc3c2)cc1	> 20 µM	695 µM	> 20 µM	–
COc1ccc2cc(-c3ccc(CC(=O)O)cc3)ccc2c1	> 20 µM	272 µM	> 20 µM	–
O=C(O)Cc1cc(-c2ccc3cc(O)ccc3c2)ccc1O	> 20 µM	> 800 µM	> 20 µM	–
COC(=O)C(O)c1ccc(-c2ccc3cc(OC)ccc3c2)cc1 (stereo unspecified)	> 20 µM	24.2 µM	> 20 µM	–
COc1ccc2cc(-c3ccc(OC(C)=O)c(COC(C)=O)c3)ccc2c1	> 20 µM	81.8 µM	> 20 µM	–
COc1cc(-c2ccc3cc(O)ccc3c2)cc(C=O)c1O	1.8 µM	0.5 µM	1.1 µM	inhibition [6]: Active; inhibition [7]: Active; inhibition [5]: Active
COc1ccc2cc(-c3ccc(C(F)(F)F)cc3)ccc2c1	> 20 µM	54.9 µM	> 20 µM	–
COc1ccc2cc(-c3ccc(OC)c(OC)c3)ccc2c1	> 20 µM	112 µM	> 20 µM	–

Compound	IC50 [1]	IC50 [2]	IC50 [3]	also measured
Nc1ccc(-c2ccc3cc(O)ccc3c2)cc1	3.1 µM	18.2 µM	19.8 µM	–
COc1ccc2cc(-c3ccc(OC)c(C=O)c3)ccc2c1	> 20 µM	> 800 µM	> 20 µM	–
CC(O)c1ccc(-c2ccc3cc(O)ccc3c2)cc1 (stereo unspecified)	3.4 µM	7.6 µM	19.9 µM	–
COC(=O)c1ccc(C)c(-c2ccc3cc(O)ccc3c2)c1	1.2 µM	0.5 µM	5 µM	inhibition [6]: Active; inhibition [5]: Active
COc1ccc2cc(-c3cc(C=O)ccc3O)ccc2c1	> 20 µM	25.3 µM	14.1 µM	–
COc1ccc2cc(-c3cc(C(C)=O)c(O)c([N+](=O)[O-])c3)ccc2c1	> 20 µM	19.8 µM	> 20 µM	inhibition [5]: Active
OCCc1cc(-c2ccc3cc(O)ccc3c2)ccc1O	0.6 µM	0.4 µM	0.6 µM	inhibition [6]: inactive; inhibition [7]: inactive; inhibition [5]: Active
O=Cc1cc(-c2ccc3cc(O)ccc3c2)ccc1O	2.1 µM	2.4 µM	5 µM	inhibition [6]: Active; inhibition [7]: Active; inhibition [5]: Active
COC(=O)c1ccc(O)c(-c2ccc3cc(OC)ccc3c2)c1	> 20 µM	36.5 µM	> 20 µM	–
COc1ccc2cc(-c3ccc(CCO)c(O)c3)ccc2c1	> 20 µM	92 µM	> 20 µM	–
O=C(O)c1cc(-c2ccc3cc(O)ccc3c2)ccc1O	> 20 µM	31.5 µM	> 20 µM	–
O=C(O)c1ccc(-c2ccc3cc(O)ccc3c2)cc1O	5.5 µM	8.1 µM	15.3 µM	–
COc1ccc2cc(-c3ccc(N)c(C)c3)ccc2c1	> 20 µM	> 800 µM	> 20 µM	–
COC(=O)c1ccc(C)c(-c2ccc3cc(OC)ccc3c2)c1	20 µM	> 800 µM	> 20 µM	inhibition [5]: Active
OCc1cccc(-c2ccc3cc(O)ccc3c2)c1	3.2 µM	5 µM	9.1 µM	–
CC[C@@]1(O)C(=O)OCc2c1cc1n(c2=O)Cc2cc3ccccc3nc2-1	–	–	–	inhibition [7]: Active
COc1ccc2cc(-c3cccc(C(F)(F)F)c3)ccc2c1	> 20 µM	455 µM	> 20 µM	–
COc1cc([C@@H]2c3cc4c(cc3[C@@H](O[C@@H]3O[C@@H]5CO[C@@H](C)O[C@H]5[C@H](O)[C@H]3O)[C@H]3COC(=O)[C@H]23)OCO4)cc(OC)c1O [ETOPOSIDE]	4.36 µM	3.67 µM	13.8 µM	inhibition [6]: Active; Activity [8]: inactive; inhibition [9]: Active; inhibition in vivo at 20 mg/kg [10]: 69%; Activity [11]: 20.1 g; Activity [12]: Active
COc1ccc2cc(-c3cc(C=O)c(O)c(OC)c3)ccc2c1	> 20 µM	61.8 µM	> 20 µM	–
COc1ccc2cc(-c3ccc(N)cc3)ccc2c1	> 20 µM	168 µM	> 20 µM	–
COc1ccc2cc(-c3ccc(C(C)O)cc3)ccc2c1 (stereo unspecified)	> 20 µM	69.8 µM	> 20 µM	–
COC(=O)Cc1cc(-c2ccc3cc(O)ccc3c2)ccc1O	–	98 µM	–	–
COC(=O)c1ccc(O)c(-c2ccc3cc(O)ccc3c2)c1	2.2 µM	7.6 µM	11.6 µM	inhibition [6]: Active
COC(=O)c1ccc(-c2ccc3cc(OC)ccc3c2)cc1	> 20 µM	> 800 µM	> 20 µM	–
CC(=O)c1cc(-c2ccc3cc(O)ccc3c2)cc([N+](=O)[O-])c1O	2.1 µM	1.4 µM	4.2 µM	inhibition [6]: Active; inhibition [7]: Active; inhibition [5]: Active
